The values below are quoted from earlier work in patent US7087648B1, “Methods for modulating macrophage proliferation using polyamine analogs” (The Regents of the University of California, priority 1997, dated 2006).

The target in data set [1] is T1, spermine synthase (Homo sapiens, UniProt P52788).
T1 sequence (P52788 1-366): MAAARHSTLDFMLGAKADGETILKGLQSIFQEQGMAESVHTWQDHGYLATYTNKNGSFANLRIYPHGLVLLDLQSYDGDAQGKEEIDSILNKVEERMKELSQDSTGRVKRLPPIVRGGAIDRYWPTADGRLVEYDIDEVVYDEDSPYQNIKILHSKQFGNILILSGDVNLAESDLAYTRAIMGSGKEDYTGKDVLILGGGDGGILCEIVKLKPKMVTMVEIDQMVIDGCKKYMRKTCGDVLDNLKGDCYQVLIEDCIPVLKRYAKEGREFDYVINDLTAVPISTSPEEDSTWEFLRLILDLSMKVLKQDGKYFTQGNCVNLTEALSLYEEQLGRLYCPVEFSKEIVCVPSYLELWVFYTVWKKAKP
The conditions noted are these: competing with spermidine; cited from earlier work.

For data set [2], the target named is T2, S-adenosylmethionine decarboxylase (Homo sapiens, UniProt P17707).
T2 sequence (P17707 68-334 limits assumed): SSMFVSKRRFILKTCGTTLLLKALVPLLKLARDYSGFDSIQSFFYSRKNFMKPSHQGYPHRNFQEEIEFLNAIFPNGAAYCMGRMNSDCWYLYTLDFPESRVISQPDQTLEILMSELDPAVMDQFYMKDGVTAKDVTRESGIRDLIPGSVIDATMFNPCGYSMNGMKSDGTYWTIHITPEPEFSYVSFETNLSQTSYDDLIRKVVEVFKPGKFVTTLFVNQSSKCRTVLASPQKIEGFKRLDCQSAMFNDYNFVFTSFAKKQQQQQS
T2 sequence (P17707 1-67 limits assumed): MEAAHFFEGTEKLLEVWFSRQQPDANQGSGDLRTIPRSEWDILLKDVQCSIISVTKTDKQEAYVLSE
To be noted: competing with S-adenosylmethionine; cited from earlier work.

Data set [3] deals with spermine synthetase. The conditions noted are these: competing with putrescine; cited from earlier work.
In data set [4] the test system is leukemic ascites cells. The conditions noted are these: cited from earlier work.
The test system of data set [5] is P388 leukemia. The conditions noted are these: mice bearing P388 leukemia; cited from earlier work.
Data set [6] has as its system rat aortic smooth muscle cells. To be noted: in culture for 8 to 15 days; cited from earlier work.

Regarding `CC(C=NNC(=N)NC1CCCC1)=NNC(=N)NC1CCCC1` [MGBCP, methylglyoxal-bis(cyclopentylamidinohydrazone)], the “inhibition of spermine synthase” value in data set [1] is “inhibited”. Besides, the “inhibition of S-adenosylmethionine decarboxylase” value in data set [2] was “inhibited”. Besides, the “inhibition of spermine synthetase” value in data set [3] is “inhibited”. The “spermidine and spermine in cells” value in data set [4] was “depleted”. The survival time result in data set [5] is on record as “prolonged survival time”.
With `CCNCCCNCCCNCCCNCC` [Bis-ethyl norspermine, 1,11 -bis(ethyl)norspermine], the cell growth result in data set [6] is “inhibit the growth”.
